The results in this text go back to patent US9963448B2, “Bicyclic inhibitors of PAD4” (Padlock Therapeutics, Inc., priority 2015, dated 2018).

Assay [1] deals with hPAD4 (Homo sapiens, UniProt Q9UM07). Nature of the assay: hPAD4 RFMS (RapidFire mass spectrometry) PAD4 inhibition assay.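 On hPAD4 RFMS pIC50: grade E means pIC50 at most 4 and F means pIC50 4.0 to 5.0.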 Conditions: hPAD4 enzyme, RFMS readout. In kind it is biochemical. How it is done:
(§1) Compounds of the present invention were assayed as inhibitors of PAD4 using the assay protocol described below.
(§2) Compound stock solutions were stored at RT. […] Final assay conditions were as follows:
(§3) Total incubation time: 65 mins at 37° C.
(§4) Stop solution: 40 μl 5% TCA in ACN
(§5) The compound numbers correspond to the compound numbers in Table 1. […] The term pIC50=−log(IC50). […] “NA” stands for “not assayed.”

The target of assay [2] is mPAD4 (Mus musculus, UniProt Q9Z183). The experiment in a line: mPAD4 RFMS PAD4 inhibition assay.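 On mPAD4 RFMS pIC50: grade E means pIC50 at most 4 and F means pIC50 4.0 to 5.0.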 Format: biochemical. As to conditions: mPAD4, RFMS readout. How it is done:
as §1, §2, §3, §4, §5

Setting [3] is: pIC50=−log(IC50), read-out: hPAD4 RFMS pIC50 (converted).
Setting [4] is: pIC50=−log(IC50), read-out: mPAD4 RFMS pIC50 (converted).

Where two headings read alike, the source gives them in different places. Where only a bound is given, the exact number is not on record here.

mPAD4, sequence (Q9Z183 whole entry): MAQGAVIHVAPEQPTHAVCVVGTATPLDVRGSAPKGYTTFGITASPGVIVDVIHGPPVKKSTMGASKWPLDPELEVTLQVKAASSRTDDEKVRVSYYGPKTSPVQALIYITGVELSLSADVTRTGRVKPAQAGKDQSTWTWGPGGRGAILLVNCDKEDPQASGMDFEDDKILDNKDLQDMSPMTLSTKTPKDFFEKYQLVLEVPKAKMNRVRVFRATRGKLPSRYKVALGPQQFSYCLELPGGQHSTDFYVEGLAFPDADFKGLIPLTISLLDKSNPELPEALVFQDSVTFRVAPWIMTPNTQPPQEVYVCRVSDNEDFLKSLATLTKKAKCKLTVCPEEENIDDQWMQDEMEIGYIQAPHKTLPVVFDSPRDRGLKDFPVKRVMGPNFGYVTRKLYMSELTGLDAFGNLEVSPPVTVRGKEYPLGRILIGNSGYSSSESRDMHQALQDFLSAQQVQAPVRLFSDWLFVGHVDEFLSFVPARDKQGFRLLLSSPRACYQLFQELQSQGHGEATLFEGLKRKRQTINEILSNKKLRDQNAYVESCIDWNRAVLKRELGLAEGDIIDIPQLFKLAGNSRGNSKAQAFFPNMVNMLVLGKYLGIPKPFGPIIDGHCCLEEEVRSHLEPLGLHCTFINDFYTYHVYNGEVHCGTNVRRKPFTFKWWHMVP
hPAD4, sequence (Q9UM07 whole entry): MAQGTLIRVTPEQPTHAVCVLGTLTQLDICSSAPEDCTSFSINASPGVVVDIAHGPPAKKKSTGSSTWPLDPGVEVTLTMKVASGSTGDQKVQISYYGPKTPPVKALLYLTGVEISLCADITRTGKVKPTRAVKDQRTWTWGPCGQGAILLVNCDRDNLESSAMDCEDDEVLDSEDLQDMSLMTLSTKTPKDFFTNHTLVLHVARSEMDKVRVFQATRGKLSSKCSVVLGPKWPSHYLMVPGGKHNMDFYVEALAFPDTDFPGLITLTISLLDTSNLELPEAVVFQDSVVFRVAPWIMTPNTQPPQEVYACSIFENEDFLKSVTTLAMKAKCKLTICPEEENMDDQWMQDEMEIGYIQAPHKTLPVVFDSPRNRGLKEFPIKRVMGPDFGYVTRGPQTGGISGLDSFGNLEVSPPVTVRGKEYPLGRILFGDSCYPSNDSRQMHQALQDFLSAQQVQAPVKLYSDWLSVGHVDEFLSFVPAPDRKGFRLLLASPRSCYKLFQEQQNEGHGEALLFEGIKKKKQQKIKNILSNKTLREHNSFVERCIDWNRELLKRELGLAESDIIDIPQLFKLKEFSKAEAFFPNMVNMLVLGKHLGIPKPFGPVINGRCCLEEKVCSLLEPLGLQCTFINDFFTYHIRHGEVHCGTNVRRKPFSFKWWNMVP

In the case of `COc1cc(C(=O)N2CCC[C@@H](N)C2)cc2nc(-c3cc4cnc(C)nc4n3CC3CC3)n(C)c12` [Compound I-203], the IC50 in assay [1] (setting [3]) is less than 1000 nM; in assay [1] (read-out: hPAD4 RFMS IC50), less than 1000 nM; in assay [2] (setting [4]), 1000 to 10000 nM; in assay [2] (read-out: mPAD4 RFMS IC50), 1000 to 5000 nM.
For `CCn1c(-c2nc3cc(C(=O)N4CCC[C@@H](N)C4)cc(OC)c3n2C[C@H]2C[C@@](C)(OC)C2)cc2ccc(OC)nc21` [Compound I-204], the IC50 in assay [1] (setting [3]), in assay [1] (read-out: hPAD4 RFMS IC50), in assay [2] (setting [4]) and in assay [2] (read-out: mPAD4 RFMS IC50) was less than 1000 nM each time.
Regarding `CCn1c(-c2nc3cc(C(=O)N4C[C@H](N)C[C@@H](F)C4)cc(OC)c3n2C[C@H]2C[C@@](C)(OC)C2)cc2ccc(OC)nc21` [Compound I-205], the IC50 in assay [1] (setting [3]), in assay [1] (read-out: hPAD4 RFMS IC50), in assay [2] (setting [4]) and in assay [2] (read-out: mPAD4 RFMS IC50) was less than 1000 nM each time.
Turning to `CCn1c(-c2nc3cc(C(=O)N4C[C@H]5CC[C@@H]4[C@@H]5N)cc(OC)c3n2C[C@H]2C[C@@](C)(OC)C2)cc2ccc(OC)nc21` [Compound I-206], the IC50 in assay [1] (setting [3]), in assay [1] (read-out: hPAD4 RFMS IC50), in assay [2] (setting [4]) and in assay [2] (read-out: mPAD4 RFMS IC50) was less than 1000 nM throughout.
Take `CCn1c(-c2nc3cc(C(=O)N4C[C@H]5CC[C@@H]4[C@@H]5N)cc(OC)c3n2[C@H]2C[C@H](OC)C2)cc2cccnc21` [Compound I-207]: the IC50 in assay [1] (setting [3]) was 1000 to 10000 nM; in assay [1] (read-out: hPAD4 RFMS IC50), 5000 to 10000 nM; in assay [2] (setting [4]), 1000 to 10000 nM; in assay [2] (read-out: mPAD4 RFMS IC50), 1000 to 5000 nM.
Turning to `COc1cc(C(=O)N2C[C@H](N)C[C@@H](F)C2)cc2nc(-c3cc4ccc(C(F)(F)F)nc4n3CC3CC3)n(C)c12` [Compound I-208], the IC50 in assay [1] (setting [3]), in assay [1] (read-out: hPAD4 RFMS IC50), in assay [2] (setting [4]) and in assay [2] (read-out: mPAD4 RFMS IC50) was less than 1000 nM each time.
For the molecule `COc1cc(C(=O)N2C[C@H](N)C[C@@H](F)C2)cc2nc(-c3cc4cccnc4n3CC3CC3)n(C[C@H]3C[C@@](C)(OC)C3)c12` [Compound I-209], the IC50 in assay [1] (setting [3]), in assay [1] (read-out: hPAD4 RFMS IC50), in assay [2] (setting [4]) and in assay [2] (read-out: mPAD4 RFMS IC50) was less than 1000 nM in each case.
With `COc1cc(C(=O)N2C[C@H]3CC[C@@H]2[C@@H]3N)cc2nc(-c3cc4ccc(C(C)(C)O)nc4n3CC3CC3)n(C)c12` [Compound I-210, 2-(2-{5-[(1R,4R,7R)-7-Amino-2-azabicyclo[2.2.1]heptane-2-carbonyl]-7-methoxy-1-methyl-1H-1,3-benzodiazol-2-yl}-1-(cyclopropylmethyl)-1H-pyrrolo[2,3-b]pyridin-6-yl)propan-2-ol], the IC50 in assay [1] (setting [3]), in assay [1] (read-out: hPAD4 RFMS IC50), in assay [2] (setting [4]) and in assay [2] (read-out: mPAD4 RFMS IC50) was less than 1000 nM each time.
With `COc1cc(C(=O)N2CCC[C@@H](N)C2)cc2nc(-c3cc4ccc(C(C)(C)O)nc4n3CC3CC3)n(C)c12` [Compound I-211], the IC50 in assay [1] (setting [3]), in assay [1] (read-out: hPAD4 RFMS IC50), in assay [2] (setting [4]) and in assay [2] (read-out: mPAD4 RFMS IC50) was less than 1000 nM each time.
Regarding `COc1cc(C(=O)N2C[C@@H]3CC[C@H]2[C@@H](N)C3)cc2nc(-c3cc4cccnc4n3CC3CC3)n(C)c12` [Compound I-212], the IC50 in assay [1] (setting [3]) is 10000 to 100000 nM; in assay [1] (read-out: hPAD4 RFMS IC50), more than 10000 nM; in assay [2] (setting [4]), 10000 to 100000 nM; in assay [2] (read-out: mPAD4 RFMS IC50), more than 10000 nM.
On to `COc1cc(C(=O)N2C[C@H]3CC[C@@H]2[C@@H]3N)cc2nc(-c3cc4cccnc4n3CC3CC3)n(CC[S+](C)[O-])c12` (stereo partly drawn) [Compound I-213, (1R,4R,7R)-2-{2-[1-(Cyclopropylmethyl)-1H-pyrrolo[2,3-b]pyridin-2-yl]-1-(2-methanesulfinylethyl)-7-methoxy-1H-1,3-benzodiazole-5-carbonyl}-2-azabicyclo[2.2.1]heptan-7-amine], for which the IC50 in assay [1] (setting [3]), in assay [1] (read-out: hPAD4 RFMS IC50), in assay [2] (setting [4]) and in assay [2] (read-out: mPAD4 RFMS IC50) was less than 1000 nM in each case.
Consider `COc1cc(C(=O)N2C[C@H]3CC[C@@H]2[C@@H]3N)cc2nc(-c3cc4cccnc4n3CC3CC3)n(CCS(C)(=O)=O)c12` [Compound I-214, (1R,4R,7R)-2-{2-[1-(cyclopropylmethyl)-1H-pyrrolo[2,3-b]pyridin-2-yl]-1-(2-methanesulfonylethyl)-7-methoxy-1H-1,3-benzodiazole-5-carbonyl}-2-azabicyclo[2.2.1]heptan-7-amine], for which the IC50 is less than 1000 nM in assay [1] (setting [3]), less than 1000 nM in assay [1] (read-out: hPAD4 RFMS IC50), 1000 to 10000 nM in assay [2] (setting [4]) and 1000 to 5000 nM in assay [2] (read-out: mPAD4 RFMS IC50).
Regarding `COc1cc(C(=O)N2C[C@@H]3CC[C@H]2[C@H](N)C3)cc2nc(-c3cc4cccnc4n3CC3CC3)n(C)c12` [Compound I-215], in assay [1] (pIC50=−log(IC50)), the “hPAD4 RFMS pIC50” value is “E/F”. The IC50 in assay [1] (read-out: hPAD4 RFMS IC50) and in assay [2] (read-out: mPAD4 RFMS IC50) was more than 10000 nM in each case. In assay [2] (pIC50=−log(IC50)), the “mPAD4 RFMS pIC50” value is recorded as “E/F”.
With `COc1cc(C(=O)N2C[C@H]3CC[C@@H]2[C@@H](N)C3)cc2nc(-c3cc4cccnc4n3CC3CC3)n(C)c12` [Compound I-216], the IC50 was 10000 to 100000 nM in assay [1] (setting [3]), more than 10000 nM in assay [1] (read-out: hPAD4 RFMS IC50), 10000 to 100000 nM in assay [2] (setting [4]) and more than 10000 nM in assay [2] (read-out: mPAD4 RFMS IC50).
For `COc1cc(C(=O)N2C[C@H]3CC[C@@H]2[C@@H]3N)cc2nc(-c3cc4cccnc4n3CC3CC3)n(CC3CCOC3)c12` (stereo partly drawn) [Compound I-217], the IC50 in assay [1] (setting [3]), in assay [1] (read-out: hPAD4 RFMS IC50), in assay [2] (setting [4]) and in assay [2] (read-out: mPAD4 RFMS IC50) was less than 1000 nM each time.
Consider `CCn1c(-c2nc3cc(C(=O)N4C[C@H]5CC[C@@H]4[C@@H]5N)cc(OC)c3n2[C@H]2C[C@@H](OC)C2)cc2cccnc21` [Compound I-218], for which the IC50 was 1000 to 10000 nM in assay [1] (setting [3]), 1000 to 5000 nM in assay [1] (read-out: hPAD4 RFMS IC50), 1000 to 10000 nM in assay [2] (setting [4]) and 1000 to 5000 nM in assay [2] (read-out: mPAD4 RFMS IC50).
Turning to `COc1cc(C(=O)N2C[C@H]3CC[C@@H]2[C@@H]3N)cc2nc(-c3cc4cccnc4n3CC3CC3)n([C@H]3C[C@@H](OC)C3)c12` [Compound I-219], the IC50 was less than 1000 nM in assay [1] (setting [3]), less than 1000 nM in assay [1] (read-out: hPAD4 RFMS IC50), 1000 to 10000 nM in assay [2] (setting [4]) and 1000 to 5000 nM in assay [2] (read-out: mPAD4 RFMS IC50).
As to `COc1cc(C(=O)N2C[C@H]3CC[C@@H]2[C@@H]3N)cc2nc(-c3cc4cc(F)cnc4n3CC3CC3)n(C)c12` [Compound I-222], the IC50 in assay [1] (setting [3]), in assay [1] (read-out: hPAD4 RFMS IC50), in assay [2] (setting [4]) and in assay [2] (read-out: mPAD4 RFMS IC50) was less than 1000 nM throughout.
As to `CO[C@]1(C)C[C@H](Cn2c(-c3cc4cccnc4n3CC3CC3)nc3cc(C(=O)N4C[C@H]5CC[C@@H]4[C@@H]5N)cc(F)c32)C1` [Compound I-223], the IC50 in assay [1] (setting [3]), in assay [1] (read-out: hPAD4 RFMS IC50), in assay [2] (setting [4]) and in assay [2] (read-out: mPAD4 RFMS IC50) was less than 1000 nM in each case.
`COc1cc(C(=O)N2C[C@H]3CC[C@@H]2[C@@H]3N)cc2nc(-c3cc4cccnc4n3CC3CC3)n([C@H]3C[C@H](F)C3)c12` [Compound I-224]: the IC50 in assay [1] (setting [3]), in assay [1] (read-out: hPAD4 RFMS IC50), in assay [2] (setting [4]) and in assay [2] (read-out: mPAD4 RFMS IC50) was less than 1000 nM throughout.
For `COc1cc(C(=O)N2C[C@H]3CC[C@@H]2[C@@H]3N)cc2nc(-c3cc4cccnc4n3CC3CC3)n([C@H]3C[C@@H](F)C3)c12` [Compound I-225], the IC50 in assay [1] (setting [3]), in assay [1] (read-out: hPAD4 RFMS IC50), in assay [2] (setting [4]) and in assay [2] (read-out: mPAD4 RFMS IC50) was less than 1000 nM in each case.
